According to paper PMC7948405, “Small-molecule control of neurotransmitter sulfonation” (The Journal of Biological Chemistry, 2020):
pIC50, pKd: −log10 of the molar value.

Columns and labels:
[1] = biological target: T1, SULT1A3 in HME(+) cells (Homo sapiens, UniProt P0DMM9); test: Ex vivo inhibition of dopamine sulfate (DPS) synthesis in SULT1A3-transfected HME(+) cells; format: cell-based; conditions: 100 μM DP, 24 h, parentheses 1 SD
T1 construct: HME cells were transfected with plasmid containing the coding region of either SULT1A3 or a negative control; expressed in transfected cells
Protocol: A stable transfectant cell line was constructed to test the ability of CMP12 and CMP13 to suppress catecholamine sulfonation in cultured human cells. […] HME cells were transfected with plasmid containing the coding region of either SULT1A3 or a negative control ([14]) (see Experiment and Transfection protocol). Transfectant isolates were grown to near confluence and harvested, and cell extracts were prepared (see Experiment). SULT1A3 levels in the extracts were assessed by determining SULT activity per μg extract (see Experiment). Activity in extracts of the SULT1A3-positive transfectants ranged from 1 to 85 times the levels present in negative-control extracts. […] Consequently, a transfectant, 1A3(+) with extract activity 42 times that of the negative-control isolate, 1A3(-), was selected for further experiments.
To establish conditions for ex vivo inhibition studies, the DP concentration and time dependence of dopamine sulfate (DPS) synthesis by 1A3(+) cells were assessed. DP and its metabolites (DPS, 3-methoxytyramine [3-MT], 3,4-dihydroxyphenylacetic acid [DOPAC], and homovanillic acid [HVA]) are baseline separable using HPLC and can be quantitated optically at […] (see Experiment and Fig. S1). Only DP and DPS were detected in the cell media, and together, they constituted >95% of the DP initially added to the media. The DPS concentration in the 1A3(+) media at 24 h after DP addition is plotted as a function of DP concentration in Fig. 6B. As is evident, the dose-response curve is linear at concentrations as high as 200 μM DP.
Figure 6 HME(+)-cell DPS synthesis and inhibition. A, Time dependence of DPS formation. DP was added at 100 μM to the growth medium of 60 to 70% confluent HME(+)-cells, and the DPS concentration in the medium was determined at the indicated time intervals. B, DP-concentration dependence of DPS synthesis. The Y-axis indicates the concentration of DPS in the growth media 24 h after DP addition. The X-axis indicates the DP concentration added at t = 0 to the growth medium of 60 to 70% confluent HME(+)-cells. […] The levels of DP (red dots) and DPS (blue dots) were determined 24 h after DP addition. […] A–D, dopamine metabolites were separated and quantitated using HPLC (see Experiment); each data point represents the average of three independent determinations, and the sum of DP and DPS concentrations was ≥95% of the total added DP. […]
Transfectants are grown to 60 to 70% confluency at 37 °C in 12-well plates in the MEM containing neomycin (400 μg ml^−1). […] DP metabolite peaks are baseline separated and detected optically at 280 nm (see Fig. S1). Standard curves were used to quantitate each metabolite (Ɛ280 = 3.2 and 2.8 mM^-1 cm^-1 for DP and DPS, respectively). DPS was detected only in the media of cells that express SULT1A3. […]

[2] = biological target: T2, SULT1A3 (Homo sapiens, UniProt P0DMM9); test: Equilibrium binding of CMP13 to SULT1A3 complexes (intrinsic fluorescence)
T2 construct: E. coli–optimized SULT coding regions were inserted into a pGEX-6P expression vector; N-His/GST/MBP triple tag (PreScission-cleavable) (N, cleaved yes); made in house; host or cells: E. coli BL21(DE3)
From the text: Figure 4 The inhibition mechanism. A, equilibrium binding. Binding was monitored via ligand-induced changes in SULT1A3 intrinsic fluorescence (λex = 290 nm, λem = 335 nm). […] Each dot represents the average of three independent titrations. Lines passing through the data represent the outcomes predicted by least-squares fitting of the averaged data to a single-binding-site model. B, representative PAP-binding reaction. PAP binding was monitored using a stopped-flow fluorimeter (λex = 290 nm, λem ≥ 330 nm (cutoff filter)). Reactions were initiated by rapidly mixing (1:1 v/v) a solution containing SULT1A3 (30 nM, dimer), CMP13 (1.0 μM, 100 × Kd), Tam (160 μM, 200 × Kd), KPO4 (50 mM), pH 7.5, 25(±2) °C, with a solution that was identical except that it lacked SULT1A3 and contained PAP (2.0 μM). The average of five independent progress curves shown and the kobs was obtained by fitting the data to a single exponential. C, pre–steady-state binding. PAP binding was monitored as described for panel B. Reactions were initiated by mixing (1:1 v/v) a solution containing SULT1A3 (30 nM, dimer), CMP13 [0 μM (black dots) or 1.0 μM, 100 × Kd (red and blue dots)], Tam [0 μM (black and blue dots) or 160 μM, 200 × Kd (red dots)], KPO4 (50 mM), pH 7.5, 25(±2) °C, with a solution that was identical except that it lacked SULT1A3 and contained PAP at twice the indicated concentrations. Each kobs value was determined in triplicate, and the averaged values are shown. kon and koff are given, respectively, by the slopes and intercepts obtained from linear least-squares fitting of the kobs vs [PAP] plot. PAP, 3′-phosphoadenosine-5′-phosphate; SULT1A3, sulfotransferase 1A3; Tam, 4-hydroxy-tamoxifen.
CMP13 binding to SULT1A3 was monitored via binding-induced changes in SULT1A3 intrinsic fluorescence (λex= 290 nm, λem= 335 nm ([17])). […] PAP binding was determined using the same protocol except that [PAP] was varied and CMP13 was 1.0 μM (100 × Ki). Titrations were performed in triplicate. Data were averaged and least-squares fit using a model that assumes a single binding site per monomer.

T1 sequence (P0DMM9 whole entry): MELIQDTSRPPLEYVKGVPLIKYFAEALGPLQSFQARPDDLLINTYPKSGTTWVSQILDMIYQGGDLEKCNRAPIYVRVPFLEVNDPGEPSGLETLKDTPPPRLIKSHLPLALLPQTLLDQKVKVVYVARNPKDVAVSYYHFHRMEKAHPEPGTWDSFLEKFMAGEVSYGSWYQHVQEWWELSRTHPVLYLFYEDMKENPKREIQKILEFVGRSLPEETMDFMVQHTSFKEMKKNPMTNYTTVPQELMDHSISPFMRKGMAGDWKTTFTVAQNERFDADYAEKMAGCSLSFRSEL
T2 sequence (P0DMM9 whole entry): as above

Row | SMILES | % Inhibition at saturation [1] | pIC50 [1] | pKd ([2]; complex E (unliganded, cap-open)) | pKd ([2]; complex E·PAP (cap-closed), PAP 350 μM) | pKd ([2]; complex E·PAP·Tam (cap held open), PAP 350 μM, Tam 160 μM) | fold tighter binding to cap-closed E·PAP than to open form E ([2]; ratio of Kd values) [fold]
1 | CC(C)Cc1ccc2cc(CCC(N)=O)ccc2n1 [CMP12] | 84 (3) % | 6.59 | – | – | – | –
2 | CC(C)Cc1ccc2cc(/C=C/C(N)=O)cnc2n1 [CMP13] | 95 (2) % | 7.92 | 6.89 | 7.96 | 6.88 | 12
